According to patent US5968910A, “Compositions containing two or three inhibitors of different HIV reverse transcriptases” (priority 1994, dated 1999):
Values after ≈ are worked out from the molar mass of the structure shown. Where two headings read alike, the source gives them in different places.

Assays:
HIV-1 RT (WT) = HIV-1 RT (WT) (Human immunodeficiency virus type 1 group M subtype B, UniProt P03366); assay: biochemical
How it was run: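 Inhibition read as reduced incorporation of [2,8-³H]dGTP (2.95 μM) into acid-precipitable product on a poly(C).oligo(dG) template/primer (0.1 mM). Recombinant RT, test compounds in 5-fold dilutions; 30 min, 37° C, pH 7.8 Tris buffer with 5 mM Mg2+, 150 mM KCl.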

HIV-1(IIIB) (WT) = assay: microbe, parasite or virus in culture; assay type: cell-based; details: Human immunodeficiency virus 1, IIIB, CCRF-CEM
How it was run: (§1)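 Infect CEM cells (250,000 cells per ml) with virus at 100 CCID50/ml; add infected suspension to wells holding diluted compound; incubate 4 days, 37° C.; examine for syncytia.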

[1] = system: HIV-1/V(0.1) 101-Ile + 141-Glu; assay: Sensitivity of mutant HIV-1 strain in CEM cell cultures; assay type: cell-based; details: Human immunodeficiency virus 1, CCRF-CEM; Table 5; read-out: EC50
How it was run: as §1

HIV-1/III(0.1) 103-Asn = assay: as above; assay type: cell-based; details: Human immunodeficiency virus 1, CCRF-CEM; Table 5; read-out: EC50
How it was run: as §1

HIV-1/Pyr (181-Cys) = assay: as above; assay type: cell-based; details: Human immunodeficiency virus 1, CCRF-CEM; CEM cells, Table 1; read-out: 50% Effective Concentration
How it was run: as §1

HIV-1/Nev (106-Ala) = assay: as above; assay type: cell-based; details: Human immunodeficiency virus 1, CCRF-CEM; CEM cells, Table 1; read-out: 50% Effective Concentration
How it was run: as §1

[2] = system: HIV-1/TIBO R82913 (103-Asn); assay: as above; assay type: cell-based; details: Human immunodeficiency virus 1, CCRF-CEM; CEM cells, Table 1; read-out: 50% Effective Concentration
How it was run: as §1

HIV-1/IV(0.1) 103-Thr = assay: as above; assay type: cell-based; details: Human immunodeficiency virus 1, CCRF-CEM; Table 5; read-out: EC50
How it was run: as §1

HIV-1/V(0.5) 103-Asn = assay: as above; assay type: cell-based; details: Human immunodeficiency virus 1, CCRF-CEM; Table 5; read-out: EC50
How it was run: as §1

[3] = system: HIV-1/TSAO-m^3 T (138-Lys); assay: as above; assay type: cell-based; details: Human immunodeficiency virus 1, CCRF-CEM; CEM cells, Table 1; read-out: 50% Effective Concentration
How it was run: as §1

HIV-1/II(0.1) 100-Ile = assay: as above; assay type: cell-based; details: Human immunodeficiency virus 1, CCRF-CEM; Table 5; read-out: EC50
How it was run: as §1

[4] = system: HIV-1/TIBO R82150 (100-Ile); assay: as above; assay type: cell-based; details: Human immunodeficiency virus 1, CCRF-CEM; CEM cells, Table 1; read-out: 50% Effective Concentration
How it was run: as §1

HIV-1/I(0.1) 103-Asn = assay: as above; assay type: cell-based; details: Human immunodeficiency virus 1, CCRF-CEM; Table 5; read-out: EC50
How it was run: as §1

HIV-1(IIIB) = assay: Knock-out concentrations: breakthrough of HIV-1(IIIB)-induced cytopathicity in CEM cell cultures; assay type: cell-based; details: for activity at 0.1 µg/mL / activity at 0.5 µg/mL / activity at 2.5 µg/mL: Human immunodeficiency virus 1, IIIB, CCRF-CEM, read-out: HIV-1-induced cytopathicity in cell culture; for activity at 0.1 µg/mL: 0.1 μg/ml; for activity at 0.5 µg/mL: 0.5 μg/ml; for activity at 2.5 µg/mL: 2.5 μg/ml
How it was run: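 CEM cells in RPMI 1640 with 10% FBS infected with HIV-1(IIIB) at ~1000× CCID50, subcultured every 3–4 days into fresh uninfected cells with drug held constant for 10 subcultivations (35 days), then ≥5 drug-free passages. Breakthrough scored by syncytium formation. Combinations used the two lowest single-drug starting concentrations.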

[5] = 936 h, day 39 post infection, compound absent from day 35
[6] = 1008 h, day 42 post infection, compound absent from day 35
[7] = 1104 h, day 46 post infection, compound absent from day 35
[8] = 1176 h, day 49 post infection, compound absent from day 35
[9] = 1272 h, day 53 post infection, compound absent from day 35

Cc1occc1C(=S)Nc1ccc(Cl)c(C=NOC(C)(C)C)c1 [Compound I]
IC50 (HIV-1 RT (WT); range stated for the compounds together, poly(C).oligo(dG), 2.95 μM [2,8-3H]dGTP, read-out: IC50 on recombinant HIV-1 RT): 51.3 to 219 nM
IC50 (HIV-1 RT (WT); substrate [2,8-3H]dGTP 2.95 μM, template poly(rC)oligo(dG), read-out: IC50, anti-HIV-1 RT (WT) activity (converted)): 202 nM
EC50 (HIV-1(IIIB) (WT); CEM cells, Table 1, read-out: 50% Effective Concentration): 0.05 µg/mL (≈ 0.143 µM)
EC50 (HIV-1(IIIB) (WT); HIV-1 (III8), Table 5, read-out: EC50): 0.01 µg/mL (≈ 0.0285 µM)
IC50 (HIV-1(IIIB) (WT); range stated for Compounds I-V together, read-out: 50% inhibitory concentration, HIV-1(IIIB) replication in CEM cells): 0.004 to 0.05 µg/mL (≈ 0.0114 to 0.143 µM)
EC50 [1]: 0.12 µg/mL (≈ 0.342 µM)
EC50 (HIV-1/III(0.1) 103-Asn): 0.3 µg/mL (≈ 0.855 µM)
EC50 (HIV-1/Pyr (181-Cys)): 0.075 µg/mL (≈ 0.214 µM)
EC50 (HIV-1/Nev (106-Ala)): 0.13 µg/mL (≈ 0.371 µM)
EC50 [2]: ≥ 1 µg/mL
EC50 (HIV-1/IV(0.1) 103-Thr): 0.6 µg/mL (≈ 1.71 µM)
EC50 (HIV-1/V(0.5) 103-Asn): 0.73 µg/mL (≈ 2.08 µM)
EC50 [3]: 0.075 µg/mL (≈ 0.214 µM)
EC50 (HIV-1/II(0.1) 100-Ile): 1.25 µg/mL (≈ 3.56 µM)
EC50 [4]: 0.085 µg/mL (≈ 0.242 µM)
EC50 (HIV-1/I(0.1) 103-Asn): 0.23 µg/mL (≈ 0.656 µM)
prevention of virus breakthrough, fold more efficient than BHAP (HIV-1(IIIB)): at least 5 fold
prevention of virus breakthrough, fold more efficient than nevirapine (HIV-1(IIIB)): ≥ 25 fold
activity at 0.1 µg/mL (HIV-1(IIIB); 96 h, day 4 post infection): 0%
activity at 0.5 µg/mL (HIV-1(IIIB); 96 h, day 4 post infection): 0%
activity at 2.5 µg/mL (HIV-1(IIIB); 96 h, day 4 post infection): 0%
activity at 0.1 µg/mL (HIV-1(IIIB); 192 h, day 8 post infection): 0%
activity at 0.5 µg/mL (HIV-1(IIIB); 192 h, day 8 post infection): 0%
activity at 2.5 µg/mL (HIV-1(IIIB); 192 h, day 8 post infection): 0%
activity at 0.1 µg/mL (HIV-1(IIIB); 264 h, day 11 post infection): 6.2%
activity at 0.5 µg/mL (HIV-1(IIIB); 264 h, day 11 post infection): 0%
activity at 2.5 µg/mL (HIV-1(IIIB); 264 h, day 11 post infection): 0%
activity at 0.1 µg/mL (HIV-1(IIIB); 336 h, day 14 post infection): 25%
activity at 0.5 µg/mL (HIV-1(IIIB); 336 h, day 14 post infection): 0%
activity at 2.5 µg/mL (HIV-1(IIIB); 336 h, day 14 post infection): 0%
activity at 0.1 µg/mL (HIV-1(IIIB); 408 h, day 17 post infection): 100%
activity at 0.5 µg/mL (HIV-1(IIIB); 408 h, day 17 post infection): 0%
activity at 2.5 µg/mL (HIV-1(IIIB); 408 h, day 17 post infection): 0%
activity at 0.1 µg/mL (HIV-1(IIIB); 504 h, day 21 post infection): 100%
activity at 0.5 µg/mL (HIV-1(IIIB); 504 h, day 21 post infection): 0%
activity at 2.5 µg/mL (HIV-1(IIIB); 504 h, day 21 post infection): 0%
activity at 0.1 µg/mL (HIV-1(IIIB); 600 h, day 25 post infection): 100%
activity at 0.5 µg/mL (HIV-1(IIIB); 600 h, day 25 post infection): 0%
activity at 2.5 µg/mL (HIV-1(IIIB); 600 h, day 25 post infection): 0%
activity at 0.1 µg/mL (HIV-1(IIIB); 672 h, day 28 post infection): 100%
activity at 0.5 µg/mL (HIV-1(IIIB); 672 h, day 28 post infection): 0%
activity at 2.5 µg/mL (HIV-1(IIIB); 672 h, day 28 post infection): 0%
activity at 0.1 µg/mL (HIV-1(IIIB); 768 h, day 32 post infection): 100%
activity at 0.5 µg/mL (HIV-1(IIIB); 768 h, day 32 post infection): 0%
activity at 2.5 µg/mL (HIV-1(IIIB); 768 h, day 32 post infection): 0%
activity at 0.1 µg/mL (HIV-1(IIIB); 840 h, day 35 post infection): 100%
activity at 0.5 µg/mL (HIV-1(IIIB); 840 h, day 35 post infection): 0%
activity at 2.5 µg/mL (HIV-1(IIIB); 840 h, day 35 post infection): 0%
activity at 0.1 µg/mL (HIV-1(IIIB); [5]): 100%
activity at 0.5 µg/mL (HIV-1(IIIB); [5]): 0%
activity at 2.5 µg/mL (HIV-1(IIIB); [5]): 0%
activity at 0.1 µg/mL (HIV-1(IIIB); [6]): 100%
activity at 0.5 µg/mL (HIV-1(IIIB); [6]): 0%
activity at 2.5 µg/mL (HIV-1(IIIB); [6]): 0%
activity at 0.1 µg/mL (HIV-1(IIIB); [7]): 100%
activity at 0.5 µg/mL (HIV-1(IIIB); [7]): 0%
activity at 2.5 µg/mL (HIV-1(IIIB); [7]): 0%
activity at 0.1 µg/mL (HIV-1(IIIB); [8]): 100%
activity at 0.5 µg/mL (HIV-1(IIIB); [8]): 0%
activity at 2.5 µg/mL (HIV-1(IIIB); [8]): 0%
activity at 0.1 µg/mL (HIV-1(IIIB); [9]): 100%
activity at 0.5 µg/mL (HIV-1(IIIB); [9]): 0%
activity at 2.5 µg/mL (HIV-1(IIIB); [9]): 0%
concentration at which virus emerged (virus breakthrough) (HIV-1(IIIB); tested at 0.1, 0.5 and 2.5 μg/ml, 35 days): 0.1 µg/mL
